Patent EP4578939A1, “MYC[…]. BASED ON VARIOUS CARBON-NITROGEN METABOLIC […], METHOD FOR ISOLATING SAME, AND USE THEREOF” (Peng, Guanghao, priority 2022, dated 2024)
Where two headings read alike, the source gives them in different places.

Tests used:
[1] = system: Mycobacterium sp. with the deposit number CGMCC No.21272; assay: BIOLOG GEN III growth experiments; type: cell-based; settings: growth on the substance; strain CGMCC No.21272 (YT)
[2] = system: Mycobacterium sp. with deposit number of CGMCC No.21273; assay: BIOLOG GEN III growth experiments; type: cell-based; settings: growth on the substance; strain CGMCC No.21273 (JD)
strain YT = assay: inhibition of nitrification inhibitors on nitrification activity and growth; type: cell-based, Mycobacterium sp.; settings: for inhibition at 5000 µM: Mycobacterium
Experimental: The nitrogen contents of the two nitrogen sources were equal in a modified Stephenson medium with (NH4)2SO4 as a nitrogen source (NH4)2SO4 content was 2.0g/L) and a modified Stephenson medium with L-arginine hydrochloride (C6H14N4O2•HCl) as a nitrogen source (C6H14N4O2•HCl content was 1.6 g/L).
When sodium pyruvate was added as a carbon source in the design of a culture medium, 1.0M sodium pyruvate solution (the concentration was calculated in terms of pyruvic acid) was prepared firstly, the pH was adjusted to the range of 7.0-7.2, and the solution was sterilized separately for later use. Before use, 1ml of 1.0M sodium pyruvate solution was added to about 100ml of modified Stevenson culture medium with (NH4)2SO4 as a nitrogen source or L-arginine hydrochloride (C6H14N4O2•HCl) as a nitrogen source, and the pyruvic acid concentration of the culture system was designed to be 0.01M.
Four kinds of nitrification inhibitors 4-amino-1,2,4-triazole (ATC), dicyandiamide (DCD, C2H4N4), aminoguanidine hydrochloride (CH6N4•HCl), and guanylthiourea (C2H6N4S) were selected. The four nitrification inhibitors were prepared with a concentration of 500mM, respectively, after the solutions were filtered and sterilized, 1ml of the four nitrification inhibitors with a concentration of 500mM was added into the two medium with different nitrogen sources, such that the corresponding concentration of each of the nitrification inhibitors in the systems was 5 mM.
Two mediums with different nitrogen sources were respectively subjected to 5 treatments, namely without addition of an inhibitor, adding ATC, adding DCD, adding aminoguanidine hydrochloride, and adding guanylthiourea as shown in the table below; the YT system without addition of an inhibitor and the system without inoculation of strain YT and only addition of an inhibitor were respectively used as a control group; 1ml of PBS-YT bacterial liquid was inoculated, and 1ml of sterile water was used as a substitute when the inoculation of a bacterial strain was not performed. The total volume of each culture system was equal, it was about 100 ml.
1.5 Culture conditions: the culture was performed in a shaking table with a rotational speed of 180rpm at 28°C.
1.6 Measurement and calculation of indicator: the growth OD600 and pH value of thallus in the culture solution were measured every week, the contents of NH4^+-N, NO2^--N and NOx^--N were measured, the inhibition effect of the nitric oxide synthase (nitrification) activity of different culture systems were calculated and compared.
Nitric oxide synthase (nitrification) inhibition rate (%) = (NO2^--NYT concentration - NO2^--Nculture system added with an inhibitor concentration) ×100/ NO2^--NYT concentration

[3] = strain YT, L-arginine hydrochloride as nitrogen source, inhibitor 5 mM, 7 days (Table 13c)
[4] = strain YT, L-arginine hydrochloride as nitrogen source, inhibitor 5 mM, 14 days (Table 13c)
[5] = strain YT, L-arginine hydrochloride as nitrogen source, inhibitor 5 mM, 20 days
[6] = strain YT, L-arginine hydrochloride as nitrogen source, inhibitor 5 mM, 31 days
[7] = strain YT, ammonium sulfate as nitrogen source, inhibitor 5 mM, 7 days (Table 13c)
[8] = strain YT, ammonium sulfate as nitrogen source, inhibitor 5 mM, 14 days (Table 13c)
[9] = strain YT, ammonium sulfate as nitrogen source, inhibitor 5 mM, 20 days
[10] = strain YT, ammonium sulfate as nitrogen source, inhibitor 5 mM, 31 days

COC(=O)[C@@H](C)O [D-methyl lactate]
BIOLOG GEN III (growth experiments) Results [1]: -
BIOLOG GEN III (growth experiments) Results [2]: -

Nn1cnnc1 [ATC, 4-amino-1,2,4-triazole]
inhibition at 5000 µM (strain YT; 168 h, read-out: Nitric oxide synthase (nitrification) activity inhibition rate (%), strain YT, Ammonium sulfate, inhibitor 5 mM, Culture 7 days (Table 13e)): 100%
inhibition at 5000 µM (strain YT; 168 h, strain YT, L-arginine hydrochloride, inhibitor 5 mM, Culture 7 days (Table 13e), read-out: Nitric oxide synthase (nitrification) activity inhibition rate (%)): 100%
inhibition at 5000 µM (strain YT; 336 h, read-out: Nitric oxide synthase (nitrification) activity inhibition rate (%), strain YT, Ammonium sulfate, inhibitor 5 mM, Culture 14 days (Table 13e)): 80%
inhibition at 5000 µM (strain YT; 336 h, strain YT, L-arginine hydrochloride, inhibitor 5 mM, Culture 14 days (Table 13e), read-out: Nitric oxide synthase (nitrification) activity inhibition rate (%)): 98.6%
inhibition at 5000 µM (strain YT; 480 h, read-out: Nitric oxide synthase (nitrification) activity inhibition rate (%), strain YT, Ammonium sulfate, inhibitor 5 mM, Culture 20 days): 89.4%
inhibition at 5000 µM (strain YT; 480 h, strain YT, L-arginine hydrochloride, inhibitor 5 mM, Culture 20 days, read-out: Nitric oxide synthase (nitrification) activity inhibition rate (%)): 99.8%
inhibition at 5000 µM (strain YT; read-out: Nitric oxide synthase (nitrification) activity inhibition rate (%), strain YT, Ammonium sulfate, inhibitor 5 mM, Culture 31 days): 25.4%
inhibition at 5000 µM (strain YT; strain YT, L-arginine hydrochloride, inhibitor 5 mM, Culture 31 days, read-out: Nitric oxide synthase (nitrification) activity inhibition rate (%)): 99.8%
effect on growth of strain YT (strain YT; pure culture with two nitrogen sources, inhibitor 5 mM): did not inhibit the growth
effect on nitrification activity of strain YT (strain YT; pure culture, inhibitor 5 mM): always exhibited the inhibiting effect
NH4^+-N (strain YT; [3]): 15
NO2^--N (strain YT; [3]): 0
OD600 (strain YT; [3]): 0.403
NH4^+-N (strain YT; [4]): 89
NO2^--N (strain YT; [4]): 0.5
OD600 (strain YT; [4]): 0.394
NH4^+-N (strain YT; [5]): 130
NO2^--N (strain YT; [5]): 0.37
OD600 (strain YT; [5]): 0.329
NH4^+-N (strain YT; [6]): 111
NO2^--N (strain YT; [6]): 0.33
OD600 (strain YT; [6]): 0.252
NH4^+-N (strain YT; [7]): 419
NO2^--N (strain YT; [7]): 0
OD600 (strain YT; [7]): 0.214
NH4^+-N (strain YT; [8]): 410
NO2^--N (strain YT; [8]): 0.50
OD600 (strain YT; [8]): 0.127
NH4^+-N (strain YT; [9]): 366
NO2^--N (strain YT; [9]): 0.5
OD600 (strain YT; [9]): 0.133
NH4^+-N (strain YT; [10]): 382
NO2^--N (strain YT; [10]): 1.17
OD600 (strain YT; [10]): 0.146
